In patent US9902722B2, “Biaryl kinase inhibitors” (BRISTOL-MYERS SQUIBB COMPANY, priority 2014, dated 2018):

Biological target: GST-Xa-hAAK1 (Homo sapiens (Human), UniProt Q2M2I8)
Assay: AAK1 Kinase Assay;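 note: each compound tested across an eleven-point concentration series, with IC50 obtained through non-linear regression fitting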
Format: biochemical
Details: bacterially expressed GST-Xa-hAAK1 3.5 nM; ATP 22 μM; peptide substrate 1.5 μM; 3 hours at room temperature; Caliper LabChip 3000

Sequence of GST-Xa-hAAK1 (Q2M2I8 whole entry): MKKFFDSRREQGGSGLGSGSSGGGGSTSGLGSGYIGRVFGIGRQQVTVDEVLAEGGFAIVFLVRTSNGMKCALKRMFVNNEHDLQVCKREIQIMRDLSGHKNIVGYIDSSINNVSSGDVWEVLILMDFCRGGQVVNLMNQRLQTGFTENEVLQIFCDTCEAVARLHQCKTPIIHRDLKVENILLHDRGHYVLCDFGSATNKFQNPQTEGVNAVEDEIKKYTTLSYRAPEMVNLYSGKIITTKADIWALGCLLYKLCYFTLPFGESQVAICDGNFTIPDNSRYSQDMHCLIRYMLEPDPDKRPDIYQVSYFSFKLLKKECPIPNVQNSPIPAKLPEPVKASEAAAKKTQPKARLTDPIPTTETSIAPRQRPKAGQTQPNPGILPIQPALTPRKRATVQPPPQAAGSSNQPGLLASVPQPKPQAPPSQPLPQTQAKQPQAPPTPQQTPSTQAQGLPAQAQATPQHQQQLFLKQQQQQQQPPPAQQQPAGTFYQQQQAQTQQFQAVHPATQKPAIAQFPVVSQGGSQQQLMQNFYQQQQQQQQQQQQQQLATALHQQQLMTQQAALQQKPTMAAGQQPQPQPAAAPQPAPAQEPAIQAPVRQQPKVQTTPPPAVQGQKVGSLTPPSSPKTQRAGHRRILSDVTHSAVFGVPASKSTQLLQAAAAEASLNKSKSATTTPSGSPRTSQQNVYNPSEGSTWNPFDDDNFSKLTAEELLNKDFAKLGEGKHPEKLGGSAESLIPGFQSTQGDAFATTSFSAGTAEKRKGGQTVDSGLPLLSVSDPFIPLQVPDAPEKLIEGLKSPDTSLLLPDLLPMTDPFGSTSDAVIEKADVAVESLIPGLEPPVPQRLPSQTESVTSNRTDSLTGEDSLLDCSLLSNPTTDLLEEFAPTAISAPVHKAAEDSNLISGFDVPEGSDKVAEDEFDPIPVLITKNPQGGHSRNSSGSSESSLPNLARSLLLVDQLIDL

Row | Structure (SMILES) | IC50 [nM]
1 | Cc1ccc2c(-c3ccc(OC[C@@](C)(N)CC(C)C)c(C#N)c3)ccnc2c1 [Example 102, (S)-2-((2-amino-2,4-dimethylpentyl)oxy)-5-(7-methylquinolin-4-yl)benzonitrile] | 1.3
2 | Cc1cc(-c2cc(C)c(OC[C@@](C)(N)CC(C)C)cn2)ccn1 [Example 228, (S)-1-((2′,4-dimethyl-[2,4′-bipyridin]-5-yl)oxy)-2,4-dimethylpentan-2-amine] | 22
3 | COc1cc(-c2ccnc(C(F)F)c2)ncc1OC[C@@](C)(N)CC(C)C [Example 207, (S)-1-((2′-(difluoromethyl)-4-methoxy-[2,4′-bipyridin]-5-yl)oxy)-2,4-dimethylpentan-2-amine] | 19
4 | Cc1cc(-c2cc(C(F)F)c(OC[C@@](N)(CF)CC(C)C)cn2)ccn1 [Example 188, (R)-1-((4-(difluoromethyl)-2′-methyl-[2,4′-bipyridin]-5-yl)oxy)-2-(fluoromethyl)-4-methylpentan-2-amine] | 92
5 | CC(C)C[C@@](N)(CF)COc1ccc(-c2ccnc(C(F)F)c2)nc1C(F)F [Example 183, (S)-1-((2′,6-bis(difluoromethyl)-[2,4′-bipyridin]-5-yl)oxy)-2-(fluoromethyl)-4-methylpentan-2-amine] | 8.8
6 | Cc1cc(-c2ccnc3cc(F)ccc23)ncc1OC[C@@](C)(N)CC(C)C [Example 227, (S)-1-((6-(7-fluoroquinolin-4-yl)-4-methylpyridin-3-yl)oxy)-2,4-dimethylpentan-2-amine] | 0.93
7 | CC(C)C[C@](C)(N)COc1ccc(-c2ccnc3cc(Cl)ccc23)cc1C(F)(F)F [Example 88, (S)-1-(4-(7-chloroquinolin-4-yl)-2-(trifluoromethyl)phenoxy)-2,4-dimethylpentan-2-amine] | 0.46
8 | COC(=O)Nc1cc(-c2ccc(OC[C@@](C)(N)CC(C)C)c(C(F)F)c2)ccn1 [Example 24, (S)-methyl (4-(4-((2-amino-2,4-dimethylpentyl)oxy)-3-(difluoromethyl)phenyl)pyridin-2-yl)carbamate] | 0.63
9 | CC(C)C[C@](C)(N)COc1ncc(-c2ccnc3ccc(F)cc23)cc1C(F)F [Example 200, (S)-1-((3-(difluoromethyl)-5-(6-fluoroquinolin-4-yl)pyridin-2-yl)oxy)-2,4-dimethylpentan-2-amine] | 1.2
10 | Cc1cc(-c2ccc(OC[C@@](C)(N)CC(C)C)c(F)c2)ccn1 [Example 91, (S)-1-(2-fluoro-4-(2-methylpyridin-4-yl)phenoxy)-2,4-dimethylpentan-2-amine] | 12.1
11 | COC(=O)Nc1cc(-c2cc(C(F)F)c(OC[C@@](C)(N)CC(C)C)cn2)ccn1 [Example 120, (S)-methyl (5-((2-amino-2,4-dimethylpentyl)oxy)-4-(difluoromethyl)-[2,4′-bipyridin]-2′-yl)carbamate] | 0.51
12 | COC(=O)Nc1cc(-c2ccc(OC[C@@](C)(N)CC(C)C)c(C(F)F)n2)ccn1 [Example 117, (S)-methyl (5-((2-amino-2,4-dimethylpentyl)oxy)-6-(difluoromethyl)-[2,4′-bipyridin]-2′-yl)carbamate] | 1
13 | CC(C)C[C@](C)(N)COc1cnc(-c2ccnc3cc(F)ccc23)cc1Cl [Example 241, (S)-1-((4-chloro-6-(7-fluoroquinolin-4-yl)pyridin-3-yl)oxy)-2,4-dimethylpentan-2-amine] | 0.86
14 | CC(C)C[C@](C)(N)COc1ncc(-c2ccnc3cc(Cl)ccc23)cc1C(F)F [Example 197, (S)-1-((5-(7-chloroquinolin-4-yl)-3-(difluoromethyl)pyridin-2-yl)oxy)-2,4-dimethylpentan-2-amine] | 0.31
15 | CC(C)C[C@](C)(N)COc1ccc(-c2ccnc(F)c2F)cc1C(F)(F)F [Example 42, (S)-1-(4-(2,3-difluoropyridin-4-yl)-2-(trifluoromethyl)phenoxy)-2,4-dimethylpentan-2-amine] | 3.3
16 | Cc1cc(-c2cc(C(F)(F)F)c(OC[C@](C)(N)CC(C)C)cn2)ccn1 [Example 164, (R)-2,4-dimethyl-1-((2′-methyl-4-(trifluoromethyl)-[2,4′-bipyridin]-5-yl)oxy)pentan-2-amine] | 254
17 | Cc1cc(-c2ccnc(F)c2)ccc1OC[C@@](C)(N)CC(C)C [Example 92, (S)-1-(4-(2-fluoropyridin-4-yl)-2-methylphenoxy)-2,4-dimethylpentan-2-amine] | 5.4
18 | CC(C)C[C@](C)(N)COc1ccc(-c2ccnc(Cl)c2F)nc1C(F)F [Example 159, (S)-1-((2′-chloro-6-(difluoromethyl)-3′-fluoro-[2,4′-bipyridin]-5-yl)oxy)-2,4-dimethylpentan-2-amine] | 1.5
19 | CC(C)C[C@](C)(N)COc1ccc(-c2ccnc(C(F)F)c2)cc1OC(F)(F)F [Example 38, (S)-1-(4-(2-(difluoromethyl)pyridin-4-yl)-2-(trifluoromethoxy)phenoxy)-2,4-dimethylpentan-2-amine] | 0.79
20 | COC(=O)Nc1cc(-c2ccc(OC[C@@](N)(CF)CC(C)C)c(C(F)F)n2)ccn1 [Example 180, (R)-methyl (5-((2-amino-2-(fluoromethyl)-4-methylpentyl)oxy)-6-(difluoromethyl)-[2,4′-bipyridin]-2′-yl)carbamate] | 24

Row | Structure (SMILES) | IC50 [nM]
21 | CC(C)C[C@](C)(N)COc1ccc(-c2ccnc3ccncc23)cc1C(F)(F)F [Example 85, (S)-1-(4-(1,6-naphthyridin-4-yl)-2-(trifluoromethyl)phenoxy)-2,4-dimethylpentan-2-amine] | 0.32
22 | CCc1cc(-c2cc(C(F)F)c(OC[C@@](C)(N)CC(C)C)cn2)ccn1 [Example 141, (S)-1-((4-(difluoromethyl)-2′-ethyl-[2,4′-bipyridin]-5-yl)oxy)-2,4-dimethylpentan-2-amine] | 1.8
23 | COC(=O)Nc1cc(-c2cc(C(F)(F)F)c(OC[C@@](C)(N)CC(C)C)cn2)ccn1 [Example 146, (S)-methyl (5-((2-amino-2,4-dimethylpentyl)oxy)-4-(trifluoromethyl)-[2,4′-bipyridin]-2′-yl)carbamate] | 0.19
24 | CC(C)C[C@](C)(N)COc1ncc(-c2ccnc3cc(F)cc(F)c23)cc1C#N [Example 77, (S)-2-((2-amino-2,4-dimethylpentyl)oxy)-5-(5,7-difluoroquinolin-4-yl)nicotinonitrile] | 0.92
25 | Cc1cc(-c2ccnc3ccc(Cl)cc23)ncc1OC[C@@](C)(N)CC(C)C [Example 229, (S)-1-((6-(6-chloroquinolin-4-yl)-4-methylpyridin-3-yl)oxy)-2,4-dimethylpentan-2-amine] | 1
26 | CC(C)C[C@](C)(N)COc1cnc(-c2ccnc3cc(F)cc(F)c23)cc1Cl [Example 233, (S)-1-((4-chloro-6-(5,7-difluoroquinolin-4-yl)pyridin-3-yl)oxy)-2,4-dimethylpentan-2-amine] | 0.73
27 | CCc1cc(-c2cc(C(F)F)c(OC[C@](C)(N)CC(C)C)cn2)ccn1 [Example 170, (R)-1-((4-(difluoromethyl)-2′-ethyl-[2,4′-bipyridin]-5-yl)oxy)-2,4-dimethylpentan-2-amine] | 285
28 | CC(C)C[C@](C)(N)COc1ncc(-c2ccnc3cc(C#N)ccc23)cc1F [Example 99, (S)-4-(6-((2-amino-2,4-dimethylpentyl)oxy)-5-fluoropyridin-3-yl)quinoline-7-carbonitrile] | 31
29 | CC(C)C[C@](C)(N)COc1ccc(-c2ccnc(C(F)F)c2)cc1C#N [Example 36, (S)-2-((2-amino-2,4-dimethylpentyl)oxy)-5-(2-(difluoromethyl)pyridin-4-yl)benzonitrile] | 0.89
30 | COC(=O)Nc1cc(-c2ccc(OC[C@](C)(N)CC(C)C)c(C)n2)ccn1 [Example 173, (R)-methyl (5-((2-amino-2,4-dimethylpentyl)oxy)-6-methyl-[2,4′-bipyridin]-2′-yl)carbamate] | 42
31 | Cc1cc(-c2ccnc3ccccc23)ncc1OC[C@@](C)(N)CC(C)C [Example 82, (S)-2,4-dimethyl-1-((4-methyl-6-(quinolin-4-yl)pyridin-3-yl)oxy)pentan-2-amine] | 0.85
32 | Cc1cc(-c2cc(C(F)F)c(OC[C@@](C)(O)CC(C)C)cn2)ccn1 [Example 178, (S)-1-((4-(difluoromethyl)-2′-methyl-[2,4′-bipyridin]-5-yl)oxy)-2,4-dimethylpentan-2-ol] | 150
33 | Cc1cc(-c2ccnc3cc(C#N)ccc23)cnc1OC[C@@](C)(N)CC(C)C [Example 96, (S)-4-(6-((2-amino-2,4-dimethylpentyl)oxy)-5-methylpyridin-3-yl)quinoline-7-carbonitrile] | 3
34 | COC(=O)Nc1cc(-c2ccc(OC[C@@](C)(N)CC(C)C)c(C)n2)ccn1 [Example 64, (S)-methyl (5-((2-amino-2,4-dimethylpentyl)oxy)-6-methyl-[2,4′-bipyridin]-2′-yl)carbamate] | 1.1
35 | Cc1cc(-c2cc(C)c(OC[C@@](C)(N)CC(C)C)c(F)n2)ccn1 [Example 107, (S)-1-((6-fluoro-2′,4-dimethyl-[2,4′-bipyridin]-5-yl)oxy)-2,4-dimethylpentan-2-amine] | 50
36 | Cc1cc(-c2ccc(OC[C@@H](N)CC(C)C)c(C#N)c2)cnn1 [Example 109, (S)-2-((2-amino-4-methylpentyl)oxy)-5-(6-methylpyridazin-4-yl)benzonitrile] | 340
37 | CC(C)C[C@](C)(O)COc1cnc(-c2ccnc3ccccc23)cc1C(F)F [Example 176, (S)-1-((4-(difluoromethyl)-6-(quinolin-4-yl)pyridin-3-yl)oxy)-2,4-dimethylpentan-2-ol] | 53
38 | COC(=O)Nc1cc(-c2ccc(OC[C@@](C)(N)CC(C)C)c(C)n2)c(F)cn1 [Example 155, (S)-methyl (5-((2-amino-2,4-dimethylpentyl)oxy)-5′-fluoro-6-methyl-[2,4′-bipyridin]-2′-yl)carbamate] | 57
39 | COC(=O)Nc1cc(-c2cc(C(F)F)c(OC[C@@](C)(O)CC(C)C)cn2)ccn1 [Example 177, (S)-methyl (4-(difluoromethyl)-5-((2-hydroxy-2,4-dimethylpentyl)oxy)-[2,4′-bipyridin]-2′-yl)carbamate] | 8.7
